Measured values taken from patent publication US20190388421A1, “NOVEL COMPOUNDS AND PHARMACEUTICAL COMPOSITIONS THEREOF FOR THE TREATMENT OF FIBROSIS” (Galapagos NV, priority 2016, published 2019).

Assays:
[1] = target: T1, human GPCR sphingosine 1-phosphate receptor 2 (S1PR2) (Homo sapiens, UniProt O95136); test: S1P2 antagonist assay (Ca2+ flux, S1P at EC80); type: cell-based; conditions: CHO-S1PR2 cells, highest concentration 20 μM
T1 construct: host or cells: CHO
Summary of the method: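 CHO cells stably overexpressing human S1PR2, serum-starved 1 h and loaded with Fluo8 dye, were read for 3 min after compound addition, then stimulated with S1P at EC80 after 15 min at 37 °C. Top concentration 20 μM in a 10-point 1/3 series; Ca2+ fluorescence ratio normalized to vehicle and S1P EC80, giving EC50.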

[2] = system: HFL-1 cells; test: IL8 assay (S1P induced IL-8 production); type: cell-based; conditions: Homo sapiens, HFL1; S1P (1 μM) induced IL-8, HFL-1 cells, without HSA
Experimental: (§1) S1P is able to induce cytokines such as IL-8 in a process that is S1PR2 dependent (O'Sullivan et al, 2014; Bruennert et al, 2015). This assay is designed to test inhibitory activity of compounds on S1P induced IL-8 on HFL-1 cells, a human fetal lung fibroblast cell line.
Human Fetal Lung cells (HFL-1) are seeded in 96 well plates in growth medium (F12K+10% heat inactivated FBS+1% Pen/strep). After overnight incubation at 37° C., 5% CO2 cells are refreshed with starvation medium without HSA (F12K+1% FBS+1% Pen/strep). On day three, compounds are added (10 point serial dilution, 30 μM highest concentration, ⅓ dilution, 0.3% DMSO final) and plates are incubated for one hour at 37° C., 5% CO2. Subsequently S1P at 1 μM final concentration is added and plates are incubated for 16 to 24 hours at 37° C., 5% CO2 after which the supernatant was collected. IL-8 levels in the supernatant are determined with the IL-8 ELISA of R&D systems.

[3] = target: T2, human GPCR sphingosine 1-phosphate receptor 5 (S1PR5) (Homo sapiens, UniProt Q9H228); test: S1PR5 selectivity assay (Ca2+ flux, antagonist, S1PR5 specific agonist trigger); type: cell-based; conditions: S1P5 antagonist EC50, CHO cells overexpressing human S1PR5 and Gq protein
T2 construct: host or cells: CHO
T2 sequence (Q9H228 whole entry): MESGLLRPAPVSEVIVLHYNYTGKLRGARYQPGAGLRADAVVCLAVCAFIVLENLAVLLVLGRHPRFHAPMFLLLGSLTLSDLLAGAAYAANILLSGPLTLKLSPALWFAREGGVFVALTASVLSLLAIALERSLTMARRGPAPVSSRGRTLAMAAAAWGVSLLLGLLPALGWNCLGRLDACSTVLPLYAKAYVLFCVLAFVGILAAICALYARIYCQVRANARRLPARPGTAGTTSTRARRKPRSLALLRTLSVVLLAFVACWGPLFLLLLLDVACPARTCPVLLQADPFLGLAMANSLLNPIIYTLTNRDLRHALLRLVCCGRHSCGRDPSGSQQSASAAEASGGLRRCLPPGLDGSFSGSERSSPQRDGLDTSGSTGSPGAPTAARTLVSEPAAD
Summary of the method: (§2)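 CHO cells stably overexpressing human S1PR1 or S1PR5 with Gq were preincubated with compound 15 min at 37 °C, then stimulated with S1P at EC80 (S1PR1) or an S1PR5-specific agonist (S1PR5). Ca2+ fluorescence was read for 3 min; 10-point 1/3 dilutions from 20 μM final, normalized to vehicle and EC80 trigger, gave EC50.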

[4] = system: HFL-1 cells; test: IL8 assay in the presence of Human Serum Albumin; type: cell-based; conditions: HFL1, S1P (5 μM) induced IL-8, HFL-1 cells, with 2% HSA, read-out: HSA IL8 EC50
Experimental: as §1
To evaluate the influence of plasma protein binding of Sip as well as compound, the S1P induced IL-8 levels were evaluated in presence of 2% Human Serum Albumin (HSA, equivalent to 40% human serum). By adding 2% HSA, which affects both the activity of the compounds as well as the S1P potency, the physiological condition are reproduced and the shift in potency expected under in vivo serum conditions can be measured.
Human Fetal Lung cells (HFL-1) are seeded in 96 well plates in growth medium (F12K+10% heat inactivated FBS+1% Pen/strep). After overnight incubation at 37° C., 5% CO2 cells are refreshed with starvation medium with HSA (F12K+1% FBS+1% Pen/strep+1.95% HSA). On day three, compounds are added (10 point serial dilution, 30 μM highest concentration, 1/3 dilution, 0.3% DMSO final) and plates are incubated for 1 h at 37° C., 5% CO2. Subsequently S1P at 5 μM final concentration is added and plates are incubated for 16 to 24 h at 37° C., 5% CO2 after which the supernatant was collected. IL-8 levels in the supernatant are determined with the IL-8 ELISA of R&D systems.

[5] = target: T3, human GPCR sphingosine 1-phosphate receptor 1 (S1PR1) (Homo sapiens, UniProt P21453); test: S1PR1 selectivity assay (Ca2+ flux, antagonist); type: cell-based; conditions: S1P1 antagonist EC50, CHO cells overexpressing human S1PR1 and Gq protein
T3 construct: host or cells: CHO
T3 sequence (P21453 whole entry): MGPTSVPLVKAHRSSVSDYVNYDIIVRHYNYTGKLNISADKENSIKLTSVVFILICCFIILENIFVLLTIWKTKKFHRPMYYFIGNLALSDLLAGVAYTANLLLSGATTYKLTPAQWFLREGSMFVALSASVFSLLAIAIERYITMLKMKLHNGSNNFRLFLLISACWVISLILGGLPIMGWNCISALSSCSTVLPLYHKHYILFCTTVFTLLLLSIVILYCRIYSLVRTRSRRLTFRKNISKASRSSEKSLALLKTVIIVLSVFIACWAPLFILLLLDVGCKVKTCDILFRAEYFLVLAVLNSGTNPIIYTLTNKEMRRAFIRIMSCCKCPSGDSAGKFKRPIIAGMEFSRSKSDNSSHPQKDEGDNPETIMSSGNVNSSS
Summary of the method: as §2

[6] = target: T4, S1PR2 (Homo sapiens, UniProt O95136); test: GTP-γS binding assay ([35S]GTPγS, S1P at EC80, S1PR2 membranes); type: biochemical; conditions: membranes from stable cell line over expressing S1PR2, read-out: S1PR2 EC
T4 construct: expressed in transfected cells
T4 sequence (O95136 whole entry): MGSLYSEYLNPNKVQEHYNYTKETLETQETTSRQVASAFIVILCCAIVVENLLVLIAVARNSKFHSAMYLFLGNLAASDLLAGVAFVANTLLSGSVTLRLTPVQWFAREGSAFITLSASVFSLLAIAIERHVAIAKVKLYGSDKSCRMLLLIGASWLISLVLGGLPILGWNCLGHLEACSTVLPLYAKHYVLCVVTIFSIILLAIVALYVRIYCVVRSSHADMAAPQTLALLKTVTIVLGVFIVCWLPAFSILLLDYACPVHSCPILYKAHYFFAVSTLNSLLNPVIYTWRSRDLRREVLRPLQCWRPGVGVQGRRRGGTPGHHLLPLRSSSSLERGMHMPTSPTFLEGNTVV
Summary of the method: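 Compounds tested against S1P at its EC80 on membranes (2.5 μg/well) from a stable S1PR2-overexpressing line, pre-incubated with 1 μM GDP 15 min at 4 °C. Buffer: 20 mM Tris pH 7.5, 10 mM MgCl2, 100 mM NaCl, 0.1% fatty-acid-free BSA, 50 ug/ml saponin. Incubated 4 h at room temperature; [35S]GTPγS binding read by WGA SPA beads.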

T1 sequence (O95136 whole entry): as above

EC50 [1] [nM] | EC50 [2] [nM] | EC50 [3] [nM] | IC50 [4] [nM] | EC50 [5] [nM] | EC50 [6] [nM] | Compound
8.5 | 1.5 | 4600 | 25.1 | 4540 | 22.4 | CCOc1cc(NC(=O)NCc2cc(C)c(-c3cn(C)nc3C(F)(F)F)nn2)cc(Cl)n1 [Compound 2, 1-(2-Chloro-6-ethoxy-pyridin-4-yl)-3-[5-methyl-6-(1-methyl-3-trifluoromethyl-1H-pyrazol-4-yl)-pyridazin-3-ylmethyl]-urea]
6610 | 1540 | ≥ 19800 | 9950 | ≥ 19800 | 11100 | Cc1cc(CNC(=O)Nc2cc(OCC(O)CO)nc(C(F)(F)F)c2)nnc1-c1cn(C)nc1C(F)(F)F (centres unmarked) [Compound 5, 1-[2-(2,3-dihydroxypropoxy)-6-(trifluoromethyl)-4-pyridyl]-3-[[5-methyl-6-[1-methyl-3-(trifluoromethyl)pyrazol-4-yl]pyridazin-3-yl]methyl]urea]
25.4 | 153 |  | 3460 | ≥ 19800 | 111 | CCOc1cc(NC(=O)NCc2cc(C)c(-c3cn(C)nc3C)nn2)cc(Cl)n1 [Compound 68]
11 | 66 |  | 30000 |  | 160 | CCOc1cc(NC(=O)NCc2cc(C)c(N3CC(F)(F)C3)nn2)cc(Cl)n1 [Compound 83, 1-(2-Chloro-6-ethoxy-pyridin-4-yl)-3-[6-(3,3-difluoro-azetidin-1-yl)-5-methyl-pyridazin-3-ylmethyl]-urea]
487 | 427 |  | 9950 |  | 3560 | CCOc1ncc(NC(=O)NCc2cc(C)c(N3CC(C)OC(C)C3)nn2)cc1C(F)(F)F (centres unmarked) [Compound 85, 1-[[6-(2,6-dimethyl-morpholin-4-yl)-5-methyl-pyridazin-3-yl]methyl]-3-[6-ethoxy-5-(trifluoromethyl)-3-pyridyl]urca]
1050 | 753 | 6610 | 2200 |  | 2170 | CCOc1cc(NC(=O)NCc2cc(C)c(N3C[C@@H](C)O[C@@H](C)C3)nn2)cc(C)n1 [Compound 93, 1-[[6-[(2R,6S)-2,6-dimethyl-morpholin-4-yl]-5-methyl-pyridazin-3-yl]methyl]-3-(2-ethoxy-6-methyl-4-pyridyl)urca]
27 | 102 | 479 | 5950 |  | 509 | CCOc1nc(C)cc(NC(=O)NCc2cc(C)c(N3C[C@@H](C)O[C@@H](C)C3)nn2)c1Cl [Compound 94, 1-(3-chloro-2-ethoxy-6-methyl-4-pyridyl)-3-[[6-[(2R,6S)-2,6-dimethyl-morpholin-4-yl]-5-methyl-pyridazin-3-yl]methyl]urea]
81 | 62 |  | 1800 |  | 274 | Cc1cc(CNC(=O)Nc2cc(Cl)nc(OCC(F)F)c2)nnc1N1CCOC(CN(C)C)C1 (centres unmarked) [Compound 97, 1-[2-chloro-6-(2,2-difluoroethoxy)-4-pyridyl]-3-[[6-[2-[(dimethylamino)methyl]morpholin-4-yl]-5-methyl-pyridazin-3-yl]methyl]urea]

Further lines, the compound ahead of its results:

Compound | EC50 [1] [nM] | EC50 [2] [nM] | EC50 [3] [nM] | IC50 [4] [nM] | EC50 [5] [nM] | EC50 [6] [nM]
CCOc1cc(NC(=O)NCc2cc(C)c(-c3cn(C)nc3C(F)(F)F)nn2)cc(C(F)(F)F)n1 [Compound 1, 1-(2-Ethoxy-6-trifluoromethyl-pyridin-4-yl)-3-[5-methyl-6-(1-methyl-3-trifluoromethyl-1H-pyrazol-4-yl)-pyridazin-3-ylmethyl]-urea] | 9.5 | 2.2 | 6610 | 61.5 | 5970 | 33.2
CCOc1cc(NC(=O)NC(C)c2cc(C)c(-c3cn(C)nc3C(F)(F)F)nn2)cc(Cl)n1 (centres unmarked) [Compound 3, 1-(2-chloro-6-ethoxy-4-pyridyl)-3-[1-[5-methyl-6-[1-methyl-3-(trifluoromethyl)pyrazol-4-yl]pyridazin-3-yl]ethyl]urea] | 26 | 22 | 6610 | 478 | ≥ 19800 | 115
Cc1cc(CNC(=O)Nc2cc(OCCO)nc(C(F)(F)F)c2)nnc1-c1cn(C)nc1C(F)(F)F [Compound 4, 1-[2-(2-hydroxyethoxy)-6-(trifluoromethyl)-4-pyridyl]-3-[[5-methyl-6-[1-methyl-3-(trifluoromethyl)pyrazol-4-yl]pyridazin-3-yl]methyl]urea] | 348 | 234 | ≥ 19800 | 652 | ≥ 19800 | 873
CCOc1ncc(NC(=O)NCc2cc(C)c(-c3cn(C)nc3C(F)(F)F)nn2)cc1Cl [Compound 8, 1-(5-chloro-6-ethoxy-3-pyridyl)-3-[[5-methyl-6-[1-methyl-3-(trifluoromethyl)pyrazol-4-yl]pyridazin-3-yl]methyl]urea] | 22 | 82.9 | ≥ 19800 | 169 | ≥ 19800 | 306
CCOc1cc(NC(=O)NCc2cc(C)c(-c3cn(C)nc3C(F)(F)F)nn2)cc(C#N)n1 [Compound 18, 1-(2-cyano-6-ethoxy-4-pyridyl)-3-[[5-methyl-6-[1-methyl-3-(trifluoromethyl)pyrazol-4-yl]pyridazin-3-yl]methyl]urea] | 10.9 | 4.6 | ≥ 19800 | 29 | 6610 | 35.8
CCOc1nc(C(F)(F)F)cc(NC(=O)NCc2cc(C)c(-c3cn(C)nc3C(F)(F)F)nn2)c1C [Compound 30, 1-[2-ethoxy-3-methyl-6-(trifluoromethyl)-4-pyridyl]-3-[[5-methyl-6-[1-methyl-3-(trifluoromethyl)pyrazol-4-yl]pyridazin-3-yl]methyl]urea] | 6.1 | 1.5 | 3280 | 37.9 | 4480 | 26.2
CCOc1cc(NC(=O)NCc2cc(C)c(-c3cn(C)nc3C(F)(F)F)nn2)cc(C)n1 [Compound 35, 1-(2-ethoxy-6-methyl-4-pyridyl)-3-[[5-methyl-6-[1-methyl-3-(trifluoromethyl)pyrazol-4-yl]pyridazin-3-yl]methyl]urea] | 74.5 | 61.9 | ≥ 19800 | 185 | ≥ 19800 | 242
CCOc1nc(Cl)cc(NC(=O)NCc2cc(C)c(-c3cn(C)nc3C(F)(F)F)nn2)n1 [Compound 38, 1-(6-chloro-2-ethoxy-pyrimidin-4-yl)-3-[[5-methyl-6-[1-methyl-3-(trifluoromethyl)pyrazol-4-yl]pyridazin-3-yl]methyl]urea] | 40.2 | 31.8 | ≥ 19800 | 198 | ≥ 19800 | 109
Cc1cc(CNC(=O)Nc2cc(C(F)(F)F)nc(OCCO)c2C)nnc1-c1cn(C)nc1C(F)(F)F [Compound 73, 1-[2-(2-hydroxyethoxy)-3-methyl-6-(trifluoromethyl)-4-pyridyl]-3-[[5-methyl-6-[1-methyl-3-(trifluoromethyl)pyrazol-4-yl]pyridazin-3-yl]methyl]urea] | 84 | 51 |  | 256 | ≥ 19800 | 160
